Here are results for five molecules from the NIST ThermoML archive (doi:10.1016/j.jct.2014.09.004).

Numbers after ± are expanded uncertainties.

The conditions of the series: Liquid; pulse heating.
In the case of `c1cc2c3c(cccc3c1)CC2` [acenaphthene], the Critical pressure was 3700 ± 110 kPa and the Critical temperature came to 820 ± 8 K.
The like results for `c1ccc2cc3ccccc3cc2c1` [anthracene] were, in that order, 3170 ± 100 kPa and 894 ± 9 K.
In the same order, the values of `c1ccc2c(c1)Cc1ccccc1-2` [fluorene] are 3180 ± 100 kPa and 836 ± 8 K.
The like results for `c1ccc2c(c1)ccc1ccccc12` [phenanthrene] were, in that order, 3250 ± 100 kPa and 893 ± 9 K.
Regarding `c1cc2ccc3cccc4ccc(c1)c2c34` [pyrene], the Critical pressure is recorded as 3030 ± 90 kPa and the Critical temperature was 974 ± 10 K.
